Here are results for nine compounds from ChEMBL document CHEMBL1154488, “Synthesis, structure elucidation and antibacterial evaluation of new steroidal -5-en-7-thiazoloquinoxaline derivatives” (2008).

Broadly, the MIC is the least concentration at which growth counts as inhibited.

Values after ≈ are worked out from the molar mass of the structure shown.

Type in all cases: functional
For assay [1], the system named is Escherichia coli. The assay is described as follows: Antibacterial activity against Escherichia coli after 18 hrs by disk diffusion method.
Assay [2] concerns Escherichia coli. The assay can be described thus: Antibacterial activity against Escherichia coli after 18 hrs by macrodilution test.
In assay [3] the test system is Escherichia coli. The assay is described as follows: Antibacterial activity against Escherichia coli at 30 ug/disk after 18 hrs by disk diffusion method. The settings on record: read-out: IZ. For orientation: A growth-free zone around the sample is the usual read-out of agar diffusion tests.

As for `Clc1nc2ccccc2nc1Cl`, the “inhibition zone (IZ)” value in the assay on Escherichia coli [1] is recorded as 6.2 mm. This compound returned an MIC in the assay with Escherichia coli [2] of 512 µg/mL (≈ 2570 µM).
In the case of `CC(C)CCC[C@@H](C)[C@H]1CC[C@H]2[C@@H]3/C(=N/NC(N)=S)C=C4C[C@@H](Cl)CC[C@]4(C)[C@H]3CC[C@]12C`, the “inhibition zone (IZ)” value in the assay on Escherichia coli [1] was determined as 14.8 mm. This compound also showed an MIC in the assay with Escherichia coli [2] of 64 µg/mL (≈ 130 µM).
Take `CC(=O)O[C@H]1CC[C@@]2(C)C(=C/C(=N\NC(N)=S)[C@H]3[C@@H]4CC[C@H]([C@H](C)CCCC(C)C)[C@@]4(C)CC[C@@H]32)C1`: the “inhibition zone (IZ)” value in the assay with Escherichia coli [1] turned out to be 13.2 mm. In addition, it took 128 µg/mL (≈ 248 µM) to inhibit growth with Escherichia coli [2] (MIC).
The corresponding values for `CC(C)CCC[C@@H](C)[C@H]1CC[C@H]2[C@@H]3/C(=N/NC(N)=S)C=C4CCCC[C@]4(C)[C@H]3CC[C@]12C` are 9.8 mm and 256 µg/mL (≈ 559 µM).
Consider `O=C(N[C@H](CO)[C@H](O)c1ccc([N+](=O)[O-])cc1)C(Cl)Cl` [CHLORAMPHENICOL], for which, in the assay on Escherichia coli [3], the zone of inhibition at 30 µg/disc was determined as 20 mm. Also, in the assay on Escherichia coli [2], the MIC stood at 32 µg/mL (≈ 99 µM).
Take `CC(C)CCC[C@@H](C)[C@H]1CC[C@H]2[C@@H]3/C(=N/Nc4nc5nc6ccccc6nc5s4)C=C4CCCC[C@]4(C)[C@H]3CC[C@]12C`: the “inhibition zone (IZ)” value in the assay on Escherichia coli [1] was 14 mm. The same compound yielded an MIC in the assay on Escherichia coli [2] of 128 µg/mL (≈ 219 µM).
As for `CC(C)CCC[C@@H](C)[C@H]1CC[C@H]2[C@@H]3CC=C4C[C@@H](O)CC[C@]4(C)[C@H]3CC[C@]12C` [CHOLESTEROL], the “inhibition zone (IZ)” value in the assay with Escherichia coli [1] turned out to be 5.8 mm. Also, in the assay on Escherichia coli [2], the MIC amounted to 512 µg/mL (≈ 1320 µM).
As for `CC(=O)O[C@H]1CC[C@@]2(C)C(=C/C(=N\Nc3nc4nc5ccccc5nc4s3)[C@H]3[C@@H]4CC[C@H]([C@H](C)CCCC(C)C)[C@@]4(C)CC[C@@H]32)C1`, the “inhibition zone (IZ)” value in the assay with Escherichia coli [1] is 20.8 mm. In the assay on Escherichia coli [2], this compound had an MIC of 64 µg/mL (≈ 99.7 µM).
On to `CC(C)CCC[C@@H](C)[C@H]1CC[C@H]2[C@@H]3/C(=N/Nc4nc5nc6ccccc6nc5s4)C=C4C[C@@H](Cl)CC[C@]4(C)[C@H]3CC[C@]12C`, for which the “inhibition zone (IZ)” value with Escherichia coli [1] is 22.4 mm. Moreover, in the assay with Escherichia coli [2], the MIC came to 32 µg/mL (≈ 51.8 µM).
